These results are taken from patent publication US20220087996A1, “Histone acetylase p300 inhibitor and use thereof” (HINOVA PHARMACEUTICALS INC., priority 2018, published 2022).

Where two headings read alike, the source gives them in different places. A value given as a limit tells only on which side of the number the result lay.

For the test, the system named is CWR22RV1 cells. Description: Compound in combination with CDK4/6 inhibitor palbociclib on proliferation of CWR22RV1 cells. The test is classed as cell-based, human. Particulars: for IC50: Homo sapiens, read-out: IC50 against the activity of CWR22RV1 cells. Here is the method: The IC50 values (nM) of the compound according to the present invention, palbociclib, and the combination of the compound according to the present invention and palbociclib against CWR22RV1 cell proliferation were tested and calculated, and the detailed procedures were as follows:
1) CWR22RV1 cells were subcultured in cell culture medium, and the cells in good growth condition were seeded in a 96-well plate, 60 μL for each well, and the cell number in each well was 2000. The plate was incubated overnight in a 37° C., 5% CO2 cell incubator. 2) The drug was prepared as 10 mM stock solution with dimethyl sulfoxide (DMSO). Prior to use, the stock solution was diluted 3 times with DMSO, and then further diluted as 3-fold gradient to obtain 9 concentration gradients. Then, each concentration of compound was diluted 200 times with the culture solution (ensuring that the DMSO concentration in the culture system was 0.1%), and two replicate wells were set for each concentration. 20 μL of diluted compound solution was added to the cell culture well (with final concentrations of 10 μM, 3.3 μM, 1.1 μM . . . ). Palbociclib was diluted with culture medium to 500 nM, 150 nM, 50 nM, 5 nM, and 20 μL diluted compound solution was added to the corresponding cell culture wells (with a final concentration of 100 nM, 30 nM, 10 nM, 1 nM). The plate was gently shaken to mix. In addition, 3 negative control wells containing only cells and 3 blank control wells containing only culture medium were included (6 wells were each added 20 μL DMSO diluted 200 times with culture medium).
(1) After culturing for 6 days, 10 μL CCK-8 was added to each well, and the plate was continually cultured in a 37° C., 5% CO2 cell incubator for 2.5 h. (2) The absorbance (OD value) was detected at 450 nm using a multifunctional microplate reader. (3) The data were analyzed by Dose-response-inhibition equation in the software GraphPad Prism6, and the IC50 value was obtained.

For `CNC(=O)Nc1ccc2c(c1)CC[C@@]21OC(=O)N(CC(=O)N2C(C)CC[C@H]2c2cc(F)c(F)c(F)c2)C1=O` (stereo in doubt) [Example 205, 1-((R)-3′-(2-((2S,5R)-2-(3,4,5-trifluorophenyl)-5-methylpyrrolidin-1-yl)-2-oxoethyl)-2′,4′-dioxo-2,3-dihydrospiro[indene-1,5′-oxazolidine]-5-yl)-3-methylurea], the IC50 (CWR22Rv1, in combination with 1 nM palbociclib) came to 130 nM; the half-inhibitory concentration (IC50) (CWR22Rv1, in combination with 10 nM palbociclib) is 110 nM; the IC50 (CWR22Rv1, in combination with 30 nM palbociclib) was 40 nM; the IC50 (CWR22Rv1, in combination with 100 nM palbociclib) is less than 1 nM; the concentration for half-maximal inhibition (IC50) (CWR22Rv1, single agent) came out at 120 nM. Also, the “inhibitory activity on CWR22RV1 cells when combined with palbociclib, versus either agent alone” value (combination with CDK4/6 inhibitor palbociclib) is “much higher”.
